Experimental findings from publication PMC12006171, “Marsupial cathelicidins: characterization, antimicrobial activity and evolution in this unique mammalian lineage” (Frontiers in Immunology, 2025) are described below.

Holding throughout (assay type): cell-based
Test [1] has as its system three fungi (Candida krusei, Candida parapsilosis, Candida albicans). Nature of the test: Antifungal screening, summary over the panel of fungi (broth microdilution). The settings on record: Y/N summary over the fungi screened, broth microdilution; NT = not tested. The protocol: Antimicrobial testing of 78 cathelicidin MPs was performed in two phases as outlined in Figure 1 . In phase I, 40 peptides (27 extant and 13 ancestral) were selected for testing based on rank (outlined above) and similarity to published marsupial cathelicidins with known antimicrobial activity ([33], [41]–[43]). These peptides were tested against nine bacteria (Staphylococcus aureus ATCC 29213 and clinical isolate, Escherichia coli ATCC 25922 and clinical isolate, Pseudomonas aeruginosa ATCC 27853 and clinical isolate, Streptococcus agalactiae ATCC 12386 and clinical isolate, Streptococcus pneumoniae ATCC 49619) and three fungi (Candida krusei ATCC 6258, Candida parapsilosis ATCC 22019, and Candida albicans clinical isolate). Details regarding these strains are available in Supplementary Table 4 . The antimicrobial activity of cathelicidins was determined as the minimum inhibitory concentration (MIC), which was the lowest concentration of cathelicidin that prevented visible bacterial or fungal growth, relative to the negative control. […] Minimum bactericidal concentration (MBC) and/or minimum fungicidal concentration (MFC) was conducted to determine microbicidal versus static action. Activity against S. aureus ATCC, E. coli ATCC, and Pseudomonas aeruginosa ATCC 27853 was examined in the presence of divalent cations to determine the impact of inhibitors.
Antimicrobial activity was determined using a broth microdilution susceptibility assay in 96 well polypropylene plates according to Clinical Laboratory Standards Institute guidelines M07-A and M26A as described previously ([33], [42], [43]). The bacterial and fungal isolates from humans and animals used in this study are outlined in Supplementary Table 4 . Only yeasts were included in the panel of fungi as they have been used in the susceptibility testing of eutherian ([3], [81]–[83]) and other marsupial cathelicidins previously ([33], [42], [43]). Cathelicidin mature peptides were solubilized in DMSO and serially diluted in duplicate from 128-0.25μg/mL in a final volume of 100µL. For bacteria, cathelicidins were diluted in Mueller Hinton Broth (MHB) with or without 10% lysed horse blood, and with (MH II B) or without (MHB) calcium and magnesium cations. For fungi, cathelicidins were diluted in Roswell Park Memorial Institute medium (RPMI)-1640 MOPS. Ampicillin or tetracycline were included as a positive control for Gram-positive and -negative bacteria respectively, while amphotericin B was used for fungi. A media-only negative control and growth control (no cathelicidin) were also included on each plate. Bacteria were sub-cultured on Muller Hinton agar (MHA) or sheep blood agar (BA), and fungi on Sabouraud dextrose agar (SAB), 20–24 hours prior to the test. Colonies were suspended in saline, the concentration adjusted to a 0.5 McFarland standard, and then diluted in media to a concentration of 1.0 x 10^6 cells/mL. Then, 100μL was added to each well of the cathelicidin dilution plate, giving a final inoculum density of 5 x 10^5 CFU/mL and cathelicidin concentration of 64-0.125μg/mL. Colony counts were performed on MHA/BA/SAB to confirm inoculum density. All plates were incubated at 35°C for 20–24 hours, depending on the strain.
Colonies were counted and compared to the colony count of the starting inoculum.

Test [2] relates to Staphylococcus aureus clinical isolate – animal, methicillin-resistant (MRSA). The following applies: µM equivalent of Table 3. The gist of the method: (§1)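 Endpoint is visible-growth inhibition (MIC) after 35°C, 20–24 h incubation. Yeast medium was RPMI-1640 MOPS; bacterial medium was Mueller Hinton broth, with or without divalent cations and lysed horse blood. Final peptide range 64-0.125μg/mL.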

The subject of test [3] is Staphylococcus aureus clinical isolate – animal, penicillin-resistant (PRSA). The following applies: µM equivalent of Table 3. The essentials:
as §1

Another test deals with Candida krusei ATCC 6258. Nature of the test: microbe, parasite or virus in culture. The settings on record: µM version of Table 4. The gist of the method: as §1
Test [4] concerns Candida albicans Clinical isolate - human. Kind of test: microbe, parasite or virus in culture. The following applies: clinical isolate; µM version of Table 4; read-out: MIC C. albicans. The essentials:
as §1

The test system of test [5] is Streptococcus agalactiae ATCC 12386. Nature of the test: microbe, parasite or virus in culture. The settings on record: µM equivalent of Table 3. The essentials: as §1
In test [6] the test system is Streptococcus pneumoniae ATCC 49619. Nature of the test: microbe, parasite or virus in culture. The following applies: µM equivalent of Table 3. The essentials:
as §1

The test system of test [7] is Candida parapsilosis ATCC 22019. Nature of the test: microbe, parasite or virus in culture. The following applies: µM version of Table 4. The gist of the method:
as §1

In test [8] the test system is Streptococcus agalactiae Clinical isolate - animal. Nature of the test: microbe, parasite or virus in culture. The settings on record: clinical isolate, µM equivalent of Table 3. The essentials:
as §1

The subject of test [9] is Escherichia coli clinical isolate - animal. Kind of test: microbe, parasite or virus in culture. The following applies: clinical isolate; for MIC in the presence of cations E. coli: superscript value, cation-adjusted Mueller Hinton broth. The gist of the method:
(§2)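 MIC read visually as the lowest peptide concentration with no growth versus negative control, after 20–24 h at 35°C. Peptides were tested in duplicate 64-0.125μg/mL (final) in MHB or cation-supplemented MH II B, some with 10% lysed horse blood; inoculum 5 x 10^5 CFU/mL.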

Test [10] has as its system Staphylococcus aureus ATCC 29213. Kind of test: microbe, parasite or virus in culture. The following applies: µM equivalent of Table 3. The essentials:
as §2

Test [11] deals with Pseudomonas aeruginosa ATCC 27853. Kind of test: microbe, parasite or virus in culture. The essentials: as §2
Test [12] has as its system Escherichia coli ATCC 25922. Nature of the test: microbe, parasite or virus in culture. The essentials: as §2
In test [13] the test system is Pseudomonas aeruginosa clinical isolate - animal. Nature of the test: microbe, parasite or virus in culture. The following applies: clinical isolate, µM equivalent of Table 3. The gist of the method: as §2
Test [14] concerns Staphylococcus aureus clinical isolate - animal. Nature of the test: microbe, parasite or virus in culture. The following applies: clinical isolate. The essentials:
as §2

The mark [15] stands for this setting: value in brackets, µM equivalent of Table 3.
Setting [16] is: superscript value, cation-adjusted Mueller Hinton broth, µM equivalent.

Values after ≈ are worked out from the molar mass of the structure shown. Read-outs that look alike come from different tables or passages of the source. Where a SMILES comes first, the peptide text is derived from it.

For the molecule “SRGLRKKLKKLGKSIKKRLKNIKIGYSIPFPG [PspeCath1p]”, the “Antifungal (MIC <64ug/mL)” value in test [1] is listed as “Y (Antifungal (MIC <64ug/mL))”.
`CC[C@H](C)[C@H](NC(=O)[C@H](CCCCN)NC(=O)[C@H](Cc1ccccc1)NC(=O)[C@H](CC(N)=O)NC(=O)[C@H](CCCCN)NC(=O)[C@H](CC(C)C)NC(=O)[C@H](CCCNC(=N)N)NC(=O)[C@H](CCCCN)NC(=O)[C@H](CCCCN)NC(=O)[C@@H](NC(=O)[C@H](CO)NC(=O)[C@H](CC(=O)O)NC(=O)CNC(=O)[C@H](Cc1ccccc1)NC(=O)[C@H](CCCCN)NC(=O)[C@H](CCCCN)NC(=O)[C@H](CC(C)C)NC(=O)[C@H](CCCCN)NC(=O)[C@H](CCCCN)NC(=O)[C@H](CCCCN)NC(=O)[C@H](CC(C)C)NC(=O)[C@H](CO)NC(=O)[C@H](CCCCN)NC(=O)[C@H](Cc1c[nH]c2ccccc12)NC(=O)[C@H](CC(C)C)NC(=O)CNC(=O)[C@H](CCCNC(=N)N)NC(=O)[C@@H](N)CCCCN)[C@@H](C)CC)C(=O)NCC(=O)N[C@@H](Cc1ccccc1)C(=O)N1CCC[C@H]1C(=O)N[C@H](C(=O)N1CCC[C@H]1C(=O)N[C@@H](CC(C)C)C(=O)O)[C@@H](C)CC` [MAP14] (H-KRGLWKSLKKKLKKFGDSIKKRLKNFKIGFPIPL-OH): the MBC MRSA in test [2] (value in brackets) was determined as 15.8 µM. The MIC MRSA in test [2] was 15.8 µM. Further, the MBC PRSA in test [3] (value in brackets) was found to be 3.9 µM. Moreover, the MIC PRSA in [3] worked out at 3.9 µM. The molecule also had an MFC C. krusei ATCC in the test on Candida krusei ATCC 6258 (value in brackets) of over 15.8 µM. The same molecule registered an MIC C. krusei ATCC in the test on Candida krusei ATCC 6258 of 15.8 µM (≈ 63.9 µg/mL). Also, the MIC in [4] was over 15.8 µM; in test [7] (read-out: MIC C. parapsilosis ATCC) it was 3.9 µM (≈ 15.8 µg/mL); in test [9] (µM equivalent of Table 3) it was 1.9 µM; in test [11] (superscript value, cation-adjusted Mueller Hinton broth, µM equivalent, read-out: MIC in the presence of cations P. aeruginosa ATCC), 1.9 µM; in test [11] (µM equivalent of Table 3, read-out: MIC P. aeruginosa ATCC) it was 3.9 µM. For the same molecule, the MBC S. agalactiae ATCC in test [5] (value in brackets) is 15.8 µM. The MIC S. agalactiae ATCC in test [5] worked out at 15.8 µM. The MBC S. pneumoniae ATCC in [6] (value in brackets) was 7.9 µM. The MIC S. pneumoniae ATCC in test [6] stood at 7.9 µM. Further, the “MFC C. parapsilosis ATCC” value in test [7] (value in brackets) was determined as 7.9 µM (≈ 31.9 µg/mL). Also, the MBC S. agalactiae in [8] (value in brackets) was determined as 7.9 µM. The MIC S. agalactiae in test [8] came out at 7.9 µM. Moreover, the “MIC in the presence of cations E. coli” value is recorded as 4 µg/mL in [9] and 0.9 µM in test [9] (µM equivalent). The “MBC E. coli” value in test [9] (setting [15]) is recorded as 1.9 µM. Further, the “MIC in the presence of cations S. aureus ATCC” value in [10] (superscript value, cation-adjusted Mueller Hinton broth) is 7.9 (7.9)^7.9 µM. For the same molecule, the “MBC S. aureus ATCC” value in [10] (value in brackets) is 7.9 (7.9)^7.9 µM. The “MIC S. aureus ATCC” value in test [10] was 7.9 (7.9)^7.9 µM. Also, in [11] (setting [15]), the “MBC P. aeruginosa ATCC” value was 3.9 µM. The “MIC in the presence of cations E. coli ATCC” value in [12] (setting [16]) is on record as 1.9 (1.9)^1.9 µM. Moreover, the “MBC E. coli ATCC” value in [12] (setting [15]) is recorded as 1.9 (1.9)^1.9 µM. Also, the “MIC E. coli ATCC” value in test [12] (µM equivalent of Table 3) is on record as 1.9 (1.9)^1.9 µM. In test [13] (value in brackets), the “MBC P. aeruginosa” value was 3.9 (3.9)^3.9 µM. Moreover, in [13], the “MIC P. aeruginosa” value was 3.9 (3.9)^3.9 µM. Further, the “MIC in the presence of cations S. aureus” value in [14] (setting [16]) is listed as 7.9 (7.9)^7.9 µM. Also, the “MBC S. aureus” value in [14] (setting [15]) is given as 7.9 (7.9)^7.9 µM. Besides, the “MIC S. aureus” value in [14] (µM equivalent of Table 3) is given as 7.9 (7.9)^7.9 µM.
